According to patent US8940331B2, “Hydrogels, methods of making hydrogels, methods of using hydrogels, and methods of isolating, trapping, attracting, and/or killing cancer cells” (The Board of Trustees of the Leland Stanford Junior …, priority 2008, dated 2015):
Where two headings read alike, the source gives them in different places. Square brackets hold non-standard residues; d marks the D form. Peptide text beside a SMILES is read from it. Nspe = C[C@H](NCC(=O)O)c1ccccc1; Nphe = O=C(O)CNCc1ccccc1; Nlys = NCCCCNCC(=O)O

Tests used:
[1] = MTS cell viability assay, primary dermal fibroblasts; type: cell-based; details: MTS assay, cells treated 24 h; concentration causing 50% cell death; read-out: LC50 Primary dermal fibroblast
Description: (§1) A library of cationic, amphipathic peptoid oligomers (“capetoids”) with various chain lengths, charges, helicity, hydrophobicity and amphipathicity have been synthesized. Their activities towards several in vitro cultured cancer cell lines were tested via MTS assays. Primary dermal fibroblasts and freshly isolated red blood cells were also tested to estimate their biosafety. […] In some concentration ranges, these peptoids kill cancer cells efficiently while being relatively safe to primary dermal fibroblasts. […] Furthermore, the actions of these peptoids were not affected by the known multidrug resistance. In MCF 7 cells and the multidrug resistant MCF 7 cells (kindly provided by Prof. Brandy Sikic at Stanford) which overexpress P-glycoproteins, these peptoids had similar cytotoxicities.

[2] = type: cell-based; details: MTS assay, cells treated 24 h, concentration causing 50% cell death
Description: as §1

[3] = system: human RBCs; type: cell-based
Description: as §1

[4] = system: Primary dermal fibroblast; assay: MTS cell viability assay, primary dermal fibroblasts; type: cell-based; details: in vitro; data not shown
Description: as §1

[5] = system: breast cancer cells; assay: In vitro chemotaxis transwell assay; type: cell-based
Text: Different chemoattractants can be chosen with regard to the cancer types of interest. As an example, Table 2 summarizes chemoattractant candidates for breast cancer. The efficacies and dosages of chemoattractants are being characterized by in vitro chemotaxis assays. The chemotactic effects of an important candidate, stromal cell-derived factor 1 (SDF-1), have been confirmed in vitro using the transwell assay.

[6] = read-out: LC50 Lncap (prostate cancer)
[7] = read-out: LC50 MCF7 (breast cancer)
[8] = read-out: LC50 MEL28 (Melanoma)
[9] = read-out: LC50 Ovcar3 (ovarian cancer)

With `C[C@@H](c1ccccc1)N(CC(N)=O)C(=O)CN(C(=O)CN(CCCCN)C(=O)CN(Cc1ccccc1)C(=O)CN(Cc1ccccc1)C(=O)CN(CCCCN)C(=O)CN(C(=O)CN(C(=O)CN(CCCCN)C(=O)CN(Cc1ccccc1)C(=O)CN(Cc1ccccc1)C(=O)CNCCCCN)[C@@H](C)c1ccccc1)[C@@H](C)c1ccccc1)[C@@H](C)c1ccccc1` [1-Npm2,3,8,9, H-(NLys-Npm-Npm-NLys-Nspe-Nspe)2-NH2] as the compound, how does the CC50 [1] read?
The CC50 was 18.5 µM.

And the CC50 [2, 6]?
Its CC50 is 10.5 µM.

And the CC50 [2, 7]?
Its CC50 is 10 µM.

What about the CC50 [2, 8] of the same compound?
Its CC50 is 16.5 µM.

And the CC50 [2, 9]?
Its CC50 is 11 µM.

What about the HC10 Red blood cells [3] of the same compound?
The HC10 Red blood cells was 80 µM.

What does the source list for `C[C@@H](c1ccccc1)N(CC(=O)N(CC(=O)N(CCCCN)CC(=O)N(CC(=O)N(CC(=O)N(CCCCN)CC(=O)N(CC(=O)N(CC(=O)N(CCCCN)CC(=O)N(CC(=O)N(CC(N)=O)Cc1ccccc1)Cc1ccccc1)Cc1ccccc1)Cc1ccccc1)Cc1ccccc1)Cc1ccccc1)Cc1ccccc1)C(=O)CNCCCCN` [1achiral-Nspe 2, H-NLys-Nspe-Npm-(NLys-Npm-Npm)3-NH2] (H-[Nlys][Nspe][Nphe][Nlys][Nphe][Nphe][Nlys][Nphe][Nphe][Nlys][Nphe][Nphe]-NH2)?
CC50 [1]: 36.5 µM; CC50 [2, 6]: 8.5 µM; CC50 [2, 7]: 14.5 µM; CC50 [2, 8]: 18 µM; CC50 [2, 9]: 15.5 µM; HC10 Red blood cells [3]: 160 µM

For `COc1cccc2c1C(=O)c1c(O)c3c(c(O)c1C2=O)C[C@@](O)(C(=O)CO)C[C@@H]3O[C@H]1C[C@H](N)[C@H](O)[C@H](C)O1` [Doxorubicin, reference compound], which “Killing of primary fibroblasts compared with cancer cell lines” value [4] is on record?
Its value is “killed primary fibroblasts as efficiently as cancer cell lines”.

Which results are given for `C[C@@H](c1ccccc1)N(CC(N)=O)C(=O)CN(C(=O)CN(CCCCN)C(=O)CN(C(=O)CN(C(=O)CN(CCCCN)C(=O)CN(C(=O)CN(C(=O)CN(CCCCN)C(=O)CN(C(=O)CN(C(=O)CNCCCCN)[C@@H](C)c1ccccc1)[C@@H](C)c1ccccc1)[C@@H](C)c1ccccc1)[C@@H](C)c1ccccc1)[C@@H](C)c1ccccc1)[C@@H](C)c1ccccc1)[C@@H](C)c1ccccc1` [Peptoid 1, H-(NLys-Nspe-Nspe)4-NH2] (H-[Nlys][Nspe][Nspe][Nlys][Nspe][Nspe][Nlys][Nspe][Nspe][Nlys][Nspe][Nspe]-NH2)?
CC50 [1]: 5 µM; CC50 [2, 6]: 5 µM; CC50 [2, 7]: 4.5 µM; CC50 [2, 8]: 5 µM; CC50 [2, 9]: 6.5 µM; HC10 Red blood cells ([3]; concentration causing 10% hemolysis of human RBCs): 21000 µM

Which CC50 [1] does the source give for `NCCCCNCC(=O)N(CC(=O)N(CC(=O)N(CCCCN)CC(=O)N(CC(=O)N(CC(=O)N(CCCCN)CC(=O)N(CC(=O)N(CC(=O)N(CCCCN)CC(=O)N(CC(=O)N(CC(N)=O)Cc1ccccc1)Cc1ccccc1)Cc1ccccc1)Cc1ccccc1)Cc1ccccc1)Cc1ccccc1)Cc1ccccc1)Cc1ccccc1` [Peptoid 1achiral, H-(NLys-Npm-Npm)4-NH2] (H-[Nlys][Nphe][Nphe][Nlys][Nphe][Nphe][Nlys][Nphe][Nphe][Nlys][Nphe][Nphe]-NH2) here?
The CC50 was 39.5 µM.

And the CC50 [2, 6]?
Its CC50 is 10.5 µM.

What about the CC50 [2, 7] of the same compound?
The CC50 was 15 µM.

What about the CC50 [2, 8] of the same compound?
Its CC50 is 18.5 µM.

And the CC50 [2, 9]?
The CC50 was 16 µM.

And the HC10 Red blood cells [3]?
Its HC10 Red blood cells is 183 µM.

For `C[C@@H](c1ccccc1)N(CC(N)=O)C(=O)CN(CCCCN)C(=O)CN(C(=O)CN(C(=O)CN(CCCCN)C(=O)CN(C(=O)CN(C(=O)CN(CCCCN)C(=O)CN(C(=O)CN(C(=O)CNCCCCN)[C@@H](C)c1ccccc1)[C@@H](C)c1ccccc1)[C@@H](C)c1ccccc1)[C@@H](C)c1ccccc1)[C@@H](C)c1ccccc1)[C@@H](C)c1ccccc1` [Peptoid 111mer, H-(NLys-Nspe-Nspe)3-NLys-Nspe-NH2] (H-[Nlys][Nspe][Nspe][Nlys][Nspe][Nspe][Nlys][Nspe][Nspe][Nlys][Nspe]-NH2), which CC50 [1] is on record?
The CC50 was 18.5 µM.

What about the CC50 [2, 6] of the same compound?
Its CC50 is 8 µM.

What about the CC50 [2, 7] of the same compound?
Its CC50 is 9 µM.

What about the CC50 [2, 8] of the same compound?
The CC50 was 15 µM.

And the CC50 [2, 9]?
The CC50 was 10.5 µM.

What about the HC10 Red blood cells [3] of the same compound?
Its HC10 Red blood cells is 103 µM.

With `CC(=O)O[C@@]12CO[C@@H]1C[C@H](O)[C@@]1(C)C(=O)[C@H](O)C3=C(C)[C@@H](OC(=O)[C@H](O)[C@@H](NC(=O)OC(C)(C)C)c4ccccc4)C[C@@](O)([C@@H](OC(=O)c4ccccc4)[C@H]21)C3(C)C` [docetaxel, reference compound] as the compound, how does the “Killing of primary fibroblasts compared with cancer cell lines” value [4] read?
Its value is “killed primary fibroblasts as efficiently as cancer cell lines”.

With stromal cell-derived factor 1 [SDF-1] as the compound, how does the Chemotactic effects [5] read?
Its Chemotactic effects is “confirmed”.
